Where a name gives a salt, the structure may show the parent alone.

Series [1] is described as follows: Plasma clearance, dog. It counts as in vivo. The settings on record: male, Beagle, 1 mg/kg, intravenous, 1 mL/kg of 1.0 mg/mL. The protocol:
Male Beagle dogs (body weight range 10-12 kg) are obtained from Marshall Bioresources, USA. Test compound is administered intravenously in solution (1 mL/kg) in 20% Captisol® in 22.5 mM phosphate buffer, pH 2, at a final drug concentration of 1.0 mg/mL (free base equivalents). Blood samples are obtained from the jugular vein over 24 hr. Samples of plasma are obtained by centrifugation and stored frozen (−20° C.) prior to analysis. Frozen plasma samples are thawed to room temperature for bioanalysis of concentrations of test compound. A related internal standard compound in acetonitrile/methanol (1:1, v/v) is added to all samples of plasma (1:1, v/v). The samples are centrifuged to remove precipitated protein prior to analysis. The supernatants are analysed by injection and rapid gradient elution on a Javelin Betasil C18 column (20×2.1 mm cartridge, Mobile phase A: Water/1 M NH4HCO3, 2000:10 v/v, Mobile Phase B: MeOH/1 M NH4HCO3, 2000:10 v/v). The eluted analytes are detected by LC-MS-MS analysis using a Sciex API 4000 triple quadrupole mass spectrometer. Concentrations of compound are determined from standards prepared and analysed under identical conditions. Clearance is calculated using non-compartmental analysis in Watson 7.4, Thermo Fisher Scientific, Inc.

The target in series [2] is Serotonin Transporter (Homo sapiens, UniProt P31645). Put plainly: Serotonin transporter binding. The source says:
(§1) Further, the compounds of the invention may be tested in binding assays and functional activity assays by well known methods for other physiologically important receptors such as, but not limited to, the hERO channel, other serotonin receptors (specifically 5-HT1B, 5-HT1D, receptors, lack of agonist activity at 5-HT2B receptors, 5-HT2C, 5-HT5, 5-HT6, and 5-HT7 receptors), dopaminergic receptors (specifically D1, D2, and D3), GABAA receptors, adrenergic receptors and monoamine transporters.

Series [3] has as its system native GABAA receptors. Put plainly: GABAA antagonism using native receptors in primary neuronal cultures (FLIPR). It counts as cell-based. The settings on record: against GABA at 10 μM, rat cortical embryonic neurons. The protocol: Activity of compounds on native GABAA receptors is evaluated by monitoring calcium fluxes using a 96 well format FLIPR® system (Fluorometric Imaging Plate Reader (FLIPR®, Molecular Devices). Briefly, cortical embryonic neurons are dissociated from E18 rat embryos and plated at optimum density into black-walled, transparent bottom poly-D-lysine coated 96-well FLIPR® plates. After loading the cells with a calcium sensitive dye (Fluo4-AM, Molecular Devices), the cells are bathed in a solution containing low chloride (chloride replaced by gluconate). Under these conditions activation of GABAA receptors causes an efflux of chloride ions (in the direction of the chemical gradient), which results in membrane depolarization and consequently activation of voltage gated calcium channels (VGCCs). Calcium influx through VGCCs is recorded and analysed offline using the FLIPR® system. For a pharmacological validation of the assay, concentration response curves (CRC) are recorded for the standard agonist (GABA) and standard antagonist (Gabazine). […]
The antagonist effects of compounds are quantified using 10-point dose response curves by comparing the peak fluorescent responses to the agonist GABA in the presence and absence of compound. […] Antagonist effects are calculated as a percent of the assay window. […]

The target in series [4] is T1, recombinant H1 receptor (human) (Homo sapiens, UniProt P35367).
T1 construct: expressed in transfected cells; host or cells: HEK-293 (membranes)
T1 sequence (P35367 whole entry): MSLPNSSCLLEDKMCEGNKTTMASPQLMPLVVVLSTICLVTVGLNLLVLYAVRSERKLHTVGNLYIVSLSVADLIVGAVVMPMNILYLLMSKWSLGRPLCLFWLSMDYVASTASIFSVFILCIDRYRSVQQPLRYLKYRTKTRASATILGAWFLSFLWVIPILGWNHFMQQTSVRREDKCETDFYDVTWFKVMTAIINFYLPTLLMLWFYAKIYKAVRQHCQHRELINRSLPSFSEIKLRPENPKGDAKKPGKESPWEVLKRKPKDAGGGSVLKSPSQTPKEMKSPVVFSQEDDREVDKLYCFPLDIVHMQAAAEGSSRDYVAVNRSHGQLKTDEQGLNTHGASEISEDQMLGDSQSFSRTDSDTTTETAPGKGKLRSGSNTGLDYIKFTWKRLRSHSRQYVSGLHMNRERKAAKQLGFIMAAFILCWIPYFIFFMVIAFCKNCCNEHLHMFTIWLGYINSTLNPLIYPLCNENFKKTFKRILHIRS
Put plainly: H1 competition binding assay ([3H]-Pyrilamine, SPA). The protocol:
[^3H]-Pyrilamine binding experiments are carried out in SPA (scintillation proximity assay) 96-well format. Membranes used in this assay are prepared from HEK-293 cells stably expressing recombinant H1 receptor (human). The incubation is initiated by the addition of a mixture of WGA PVT SPA beads (1 mg/well, Perkin Elmer (MA, USA) RPNQ0001) and 3 μg membranes to assay buffer (67 mM Tris; pH 7.6) containing 3.5 nM [^3H]-Pyrilamine and varying concentrations of the test compound (10 point concentration response curves). Non-specific binding is determined in the presence of 10 μM Triprolidine. Samples are incubated for 4 hr. at room temperature (22° C.) and then read in a Microbeta Trilux.
Curves are evaluated using a 4-parameter logistic nonlinear equation to obtain the concentration of competitor causing 50% inhibition of radioligand binding (IC50). Equilibrium dissociation constants (Ki) are calculated according to the equation Ki=IC50/(1+L/Kd), where L equals the concentration of radioligand used in the experiment and Kd equals the equilibrium dissociation constant of the radioligand for the receptor, determined from standard saturation analysis or homologous competition experiments. Reported values for Ki, where n values are indicated, are shown as geometric mean±the standard error of the mean (SEM), with the number of replicate determinations indicated by n. […]

In series [5] the target is T2, 5-HT2B (Homo sapiens, UniProt P41595). Put plainly: 5-HT2B binding.
T2 sequence (P41595 whole entry, species assumed): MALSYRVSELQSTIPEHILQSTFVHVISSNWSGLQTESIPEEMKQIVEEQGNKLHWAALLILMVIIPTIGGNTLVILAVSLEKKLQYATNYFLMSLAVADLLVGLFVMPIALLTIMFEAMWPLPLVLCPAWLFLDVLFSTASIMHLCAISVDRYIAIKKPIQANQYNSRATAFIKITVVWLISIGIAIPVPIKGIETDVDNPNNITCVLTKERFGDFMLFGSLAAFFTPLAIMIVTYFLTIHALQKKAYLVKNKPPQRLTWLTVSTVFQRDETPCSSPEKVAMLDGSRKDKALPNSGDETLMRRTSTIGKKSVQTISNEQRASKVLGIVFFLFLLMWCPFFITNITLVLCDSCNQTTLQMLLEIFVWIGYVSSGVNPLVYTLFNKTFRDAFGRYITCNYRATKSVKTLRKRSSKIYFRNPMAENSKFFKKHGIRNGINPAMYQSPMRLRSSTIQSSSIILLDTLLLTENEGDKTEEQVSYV
Excerpt: as §1

Series [6] addresses T2, 5-HT2B. Put plainly: 5-HT2B agonist functional activity. Type of series: biochemical.
Excerpt: as §1

The target of series [7] is Adrenergic alpha1A (Homo sapiens, UniProt P35348). Put plainly: Adrenergic alpha1A binding.
Adrenergic alpha1A, sequence (P35348 whole entry): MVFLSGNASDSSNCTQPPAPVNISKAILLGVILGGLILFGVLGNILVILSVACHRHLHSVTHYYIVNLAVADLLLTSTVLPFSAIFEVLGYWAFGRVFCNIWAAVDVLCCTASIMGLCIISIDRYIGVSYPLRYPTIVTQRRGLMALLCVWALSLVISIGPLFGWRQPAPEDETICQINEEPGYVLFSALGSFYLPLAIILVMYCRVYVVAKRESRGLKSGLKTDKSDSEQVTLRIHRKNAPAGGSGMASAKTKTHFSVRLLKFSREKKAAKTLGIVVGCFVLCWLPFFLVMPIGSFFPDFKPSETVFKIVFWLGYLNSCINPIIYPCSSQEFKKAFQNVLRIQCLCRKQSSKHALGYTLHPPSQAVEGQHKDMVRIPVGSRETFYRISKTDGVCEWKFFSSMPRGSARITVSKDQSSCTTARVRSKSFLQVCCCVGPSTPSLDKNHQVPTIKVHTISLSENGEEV
Excerpt: as §1

Serotonin Transporter, sequence (P31645 whole entry): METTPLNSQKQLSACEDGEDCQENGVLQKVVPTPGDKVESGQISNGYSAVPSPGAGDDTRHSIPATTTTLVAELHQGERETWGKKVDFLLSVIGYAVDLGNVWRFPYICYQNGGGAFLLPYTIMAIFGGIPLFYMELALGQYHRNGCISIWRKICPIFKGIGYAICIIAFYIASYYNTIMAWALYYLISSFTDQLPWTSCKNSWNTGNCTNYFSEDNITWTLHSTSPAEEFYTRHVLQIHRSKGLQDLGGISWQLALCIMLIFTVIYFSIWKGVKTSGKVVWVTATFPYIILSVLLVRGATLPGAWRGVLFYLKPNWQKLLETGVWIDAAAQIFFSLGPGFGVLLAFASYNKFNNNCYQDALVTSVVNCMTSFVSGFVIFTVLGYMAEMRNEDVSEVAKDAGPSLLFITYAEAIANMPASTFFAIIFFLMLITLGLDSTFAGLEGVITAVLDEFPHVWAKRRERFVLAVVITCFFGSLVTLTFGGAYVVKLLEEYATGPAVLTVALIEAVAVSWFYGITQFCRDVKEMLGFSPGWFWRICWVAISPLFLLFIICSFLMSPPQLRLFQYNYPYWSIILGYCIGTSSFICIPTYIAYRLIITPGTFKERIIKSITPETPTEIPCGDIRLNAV

Turning to `Cc1ccc2c(c1)Oc1sc(C)cc1C(N1CCN(CC(C)(C)C(=O)O)CC1)=N2` [Example 2, 3-[4-(2,8-Dimethylthieno[2,3-b][1,5]benzoxazepin-4-yl)piperazin-1-yl]-2,2-dimethyl-propanoic acid dihydrochloride], the clearance (as a rule, the volume of plasma or blood freed of the substance per unit of time) in series [1] came to 2.8 mL/min/kg. For the same molecule, the Ki (usually the dissociation constant of the complex between target and ligand, obtained from inhibition or displacement) in series [2] is greater than 651 nM; in series [4] it was 131 nM; in series [5] it was 95.8 nM; in series [7] it was greater than 10500 nM. In addition, the IC50 (in general, the point on the concentration scale where inhibition reaches its midpoint) in series [3] is 98000 nM. The concentration for a half-maximal effect (EC50) (as a rule, the concentration that produces a half-maximal response) in series [6] was greater than 10000 nM.

Values taken from US9512140B2, “(Thieno[2,3-b][1,5]benzoxazepin-4-yl)piperazin-1-yl compounds as dual activity H1 inverse agonists/5-HT2A antagonists” (priority 2011, dated 2016).
